From US4076849A, “Control of nitrosamine formation in nitrite cured meat” (Canada Packers Limited, priority 1975, dated 1978)

Assays:
[1] = Nitrosamine content after frying cured bacon slices streaked with a soya oil solution of the aromatic secondary amine; conditions: 100 ppm
Experimental: In the case of o-methoxy-N-dodecylaminobenzene samples were tested at 100, 200 and 300 ppm levels. The controls were streaked with oil alone.

[2] = in vivo; cited from earlier work
[3] = Table III, controls (ppb): Ex 30 76.0 and 60.0, 31 29.0, 32-33 42.5, 34 32.5, 35-39 28.2, 40 17.5, 41 20.0, 42 19.1, 43-44 34.0, 45 23.0, below about 3 ppb is below accurate detection level

| SMILES | NITROSAMINES Test [1, 3] [ppb] | carcinogenic in tests on experimental animals [2] | also measured |
| --- | --- | --- | --- |
| CCOc1ccc(NC(C)(C)C)cc1 [Example 42, p-Ethoxy-N-t-butylaminobenzene] | 2.2 | – | – |
| CCCCCCCCCCCCNc1ccc(OC)cc1OC [Example 45, o,p-Dimethoxy-N-dodecylaminobenzene] | 2.5 | – | – |
| CCCCCCCCCCCCNc1ccccc1 [Example 47, N-Dodecylaminobenzene] | – | – | NITROSAMINES Test ([1]; Table IV, controls (ppb): Ex 46 34.0, 47 76.0, 48-49 41.0, 50-54 36.2): 16.0 ppb |
| O=NN1CCCC1 [N-nitrosopyrrolidine] | – | carcinogenic | – |
| CN(C)N=O [dimethylnitrosamine] | – | carcinogenic | – |
